Measured values from paper PMC4965148 (PLoS ONE, 2016).
“And” between values parts separate entries of the source, which are not always exact repeats. Equal values may be shown once. Read-outs that look alike come from different tables or passages of the source.

How the values were obtained:
human 5-HT3A receptors = molecular target: T1, human 5-HT3A receptors (Homo sapiens, UniProt P46098); test: biochemical
T1 sequence (P46098 24-478): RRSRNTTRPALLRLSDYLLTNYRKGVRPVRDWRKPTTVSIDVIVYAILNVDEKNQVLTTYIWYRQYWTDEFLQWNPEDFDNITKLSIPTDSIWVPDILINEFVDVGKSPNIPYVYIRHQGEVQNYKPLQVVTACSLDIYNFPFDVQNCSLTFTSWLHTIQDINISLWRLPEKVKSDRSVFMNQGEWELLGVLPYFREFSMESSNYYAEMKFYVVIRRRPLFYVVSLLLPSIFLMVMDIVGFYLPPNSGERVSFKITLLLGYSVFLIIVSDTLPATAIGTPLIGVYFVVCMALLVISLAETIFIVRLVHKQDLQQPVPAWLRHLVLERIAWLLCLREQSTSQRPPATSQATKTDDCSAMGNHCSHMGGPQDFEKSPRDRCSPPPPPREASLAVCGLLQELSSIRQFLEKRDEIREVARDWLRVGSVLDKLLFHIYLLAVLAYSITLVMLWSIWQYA

[1] = Plasma and brain concentrations after dosing; assay type: in vivo, rat; details: for concentration at 30 min / Kp at 30 min: sc
Protocol: At specified time points after dosing, the forebrain (for occupancy), the remaining hindbrain (for brain drug exposure) and plasma were collected, frozen in chilled isopentane and stored at -80°C until assayed.
In brief, 50 μL of the plasma sample was extracted by protein precipitation with 150 μL acetonitrile containing an internal standard and 5 μL of supernatant injected into the LC-MS/MS system. Analytes were separated by reversed phase chromatography and detection of each analyte was achieved through selected reaction monitoring mode of mass spectrometry.

## c1cn(-c2cc(NC3=NC[C@@]4(CN5CCC4CC5)O3)ncn2)cn1 [BMS-933043, (2R)-N-(6-(1H-imidazol-1-yl)-4-pyrimidinyl)-4'H-spiro[4-azabicyclo[2.2.2]octane-2,5'-[1,3]oxazol]-2'-amine]
Human 5-HT3A receptors; HEK293/human 5-HT3A Ki (individual), individual determinations
  Ki: 2.31 µM and 2.59 µM
Human 5-HT3A receptors; human 5-HT3A mean Ki ± SD
  Ki: 2.45 µM
[1]; Rat MK-801 Set Shift (0.3-3 mg/kg study), 0.30 mg/kg po, 150 min
  Brain Mean ± SD: < LLQ
[1]; rat, brain, oral, 1 mg/kg, Rat MK-801 Set Shift (0.3-3 mg/kg study), 1 mg/kg po, 150 min, read-out: Brain Mean ± SD
  concentration at 150 min: 13 ± 3 nM
[1]; rat, brain, oral, 3 mg/kg, Rat MK-801 Set Shift (0.3-3 mg/kg study), 3 mg/kg po, 150 min, read-out: Brain Mean ± SD
  concentration at 150 min: 100 ± 39 nM
[1]; rat, brain, oral, 3 mg/kg, Rat MK-801 Set Shift (3-30 mg/kg study), 3 mg/kg po, 150 min, read-out: Brain Mean ± SD
  concentration at 150 min: 132 ± 17 nM
[1]; rat, brain, oral, 10 mg/kg, Rat MK-801 Set Shift (3-30 mg/kg study), 10 mg/kg po, 150 min, read-out: Brain Mean ± SD
  concentration at 150 min: 533 ± 111 nM
[1]; rat, brain, oral, 30 mg/kg, Rat MK-801 Set Shift (3-30 mg/kg study), 30 mg/kg po, 150 min, read-out: Brain Mean ± SD
  concentration at 150 min: 2220 nM
[1]; rat, brain, 0.03 mg/kg, Rat MMN, 0.03 mg/kg sc, read-out: Brain Mean ± SD
  concentration at 30 min: 13 nM
[1]; rat, brain, 0.3 mg/kg, Rat MMN, 0.30 mg/kg sc, read-out: Brain Mean ± SD
  concentration at 30 min: 13 ± 0.65 nM
[1]; rat, brain, 0.3 mg/kg, Rat N40 Gating, 0.30 mg/kg sc, read-out: Brain Mean ± SD
  concentration at 30 min: 21 ± 6 nM
[1]; rat, brain, 0.56 mg/kg, Rat N40 Gating, 0.56 mg/kg sc, read-out: Brain Mean ± SD
  concentration at 30 min: 42 ± 10 nM
[1]; rat, brain, 1 mg/kg, Rat MMN, 1 mg/kg sc, read-out: Brain Mean ± SD
  concentration at 30 min: 74 ± 18 nM
[1]; rat, brain, 1 mg/kg, Rat N40 Gating, 1 mg/kg sc, read-out: Brain Mean ± SD
  concentration at 30 min: 97 ± 14 nM
[1]; rat, brain, 3 mg/kg, Rat MMN, 3 mg/kg sc, read-out: Brain Mean ± SD
  concentration at 30 min: 378 ± 161 nM
[1]; rat, brain, 3 mg/kg, Rat N40 Gating, 3 mg/kg sc, read-out: Brain Mean ± SD
  concentration at 30 min: 372 ± 33 nM
[1]; rat, brain/plasma, oral, 1 mg/kg, Rat MK-801 Set Shift (0.3-3 mg/kg study), 1 mg/kg po, 150 min
  Kp at 150 min: 0.25
[1]; rat, brain/plasma, oral, 3 mg/kg, Rat MK-801 Set Shift (0.3-3 mg/kg study), 3 mg/kg po, 150 min
  Kp at 150 min: 0.24
[1]; rat, brain/plasma, oral, 3 mg/kg, Rat MK-801 Set Shift (3-30 mg/kg study), 3 mg/kg po, 150 min
  Kp at 150 min: 0.29
[1]; rat, brain/plasma, oral, 10 mg/kg, Rat MK-801 Set Shift (3-30 mg/kg study), 10 mg/kg po, 150 min
  Kp at 150 min: 0.29
[1]; rat, brain/plasma, oral, 30 mg/kg, Rat MK-801 Set Shift (3-30 mg/kg study), 30 mg/kg po, 150 min
  Kp at 150 min: 0.31
[1]; rat, brain/plasma, other: subcutaneous or oral (pooled over all rat studies), rats
  Kp: 0.28
[1]; rat, brain/plasma, 0.03 mg/kg, Rat MMN, 0.03 mg/kg sc
  Kp at 30 min: 0.57
[1]; rat, brain/plasma, 0.3 mg/kg, Rat MMN, 0.30 mg/kg sc
  Kp at 30 min: 0.17
[1]; rat, brain/plasma, 0.3 mg/kg, Rat N40 Gating, 0.30 mg/kg sc
  Kp at 30 min: 0.26
[1]; rat, brain/plasma, 0.56 mg/kg, Rat N40 Gating, 0.56 mg/kg sc
  Kp at 30 min: 0.3
[1]; rat, brain/plasma, 1 mg/kg, Rat MMN, 1 mg/kg sc
  Kp at 30 min: 0.19
[1]; rat, brain/plasma, 1 mg/kg, Rat N40 Gating, 1 mg/kg sc
  Kp at 30 min: 0.33
[1]; rat, brain/plasma, 3 mg/kg, Rat MMN, 3 mg/kg sc
  Kp at 30 min: 0.19
[1]; rat, brain/plasma, 3 mg/kg, Rat N40 Gating, 3 mg/kg sc
  Kp at 30 min: 0.27
[1]; rat, plasma, oral, 0.3 mg/kg, Rat MK-801 Set Shift (0.3-3 mg/kg study), 0.30 mg/kg po, 150 min, read-out: Plasma Mean ± SD
  concentration at 150 min: 5.7 ± 0.9 nM
[1]; rat, plasma, oral, 1 mg/kg, Rat MK-801 Set Shift (0.3-3 mg/kg study), 1 mg/kg po, 150 min, read-out: Plasma Mean ± SD
  concentration at 150 min: 50 ± 7.4 nM
[1]; rat, plasma, oral, 3 mg/kg, Rat MK-801 Set Shift (0.3-3 mg/kg study), 3 mg/kg po, 150 min, read-out: Plasma Mean ± SD
  concentration at 150 min: 410 ± 97 nM
[1]; rat, plasma, oral, 3 mg/kg, Rat MK-801 Set Shift (3-30 mg/kg study), 3 mg/kg po, 150 min, read-out: Plasma Mean ± SD
  concentration at 150 min: 452 ± 60 nM
[1]; rat, plasma, oral, 10 mg/kg, Rat MK-801 Set Shift (3-30 mg/kg study), 10 mg/kg po, 150 min, read-out: Plasma Mean ± SD
  concentration at 150 min: 1860 nM
[1]; rat, plasma, oral, 30 mg/kg, Rat MK-801 Set Shift (3-30 mg/kg study), 30 mg/kg po, 150 min, read-out: Plasma Mean ± SD
  concentration at 150 min: 7260 nM
[1]; rat, plasma, po, 1 mg/kg, Rat Neonatal PCP ID/ED, 1 mg/kg po, 150 min, read-out: Plasma Mean ± SD
  concentration at 150 min: 21 ± 9 nM
[1]; rat, plasma, po, 3 mg/kg, Rat Neonatal PCP ID/ED, 3 mg/kg po, 150 min, read-out: Plasma Mean ± SD
  concentration at 150 min: 225 ± 50 nM
[1]; rat, plasma, 0.01 mg/kg, Rat MMN, 0.01 mg/kg sc, read-out: Plasma Mean ± SD
  concentration at 30 min: 2.4 ± 0.1 nM
[1]; rat, plasma, 0.03 mg/kg, Rat MMN, 0.03 mg/kg sc, read-out: Plasma Mean ± SD
  concentration at 30 min: 23 ± 29 nM
[1]; rat, plasma, 0.1 mg/kg, Rat MMN, 0.10 mg/kg sc, read-out: Plasma Mean ± SD
  concentration at 30 min: 24 ± 0.6 nM
[1]; rat, plasma, 0.3 mg/kg, Rat MMN, 0.30 mg/kg sc, read-out: Plasma Mean ± SD
  concentration at 30 min: 75 ± 6 nM
[1]; rat, plasma, 0.3 mg/kg, Rat N40 Gating, 0.30 mg/kg sc, read-out: Plasma Mean ± SD
  concentration at 30 min: 81 ± 8 nM
